# Assay results taken from patent publication EP4741392A1, “1H-PYRAZOLO[4,3-C]PYRIDINE COMPOUND, AND COMPOSITION THEREOF AND USE THEREOF” (Shenzhen TargetRx Co., Ltd., priority 2023, dated 2025).
# Legend:
# Assay type in all cases: biochemical
# BTK C481S = target: T1, BTK C481S (Homo sapiens, UniProt Q06187, C481S); assay: Kinase activity inhibition assay (HTRF TK Kit)
# T1 construct: purchased Carna 08-547
# From the text: (§1) In this assay, the HTRF TK Kit (Catalog No. 62TK0PEC) provided by Cisbio was used to detect the inhibitory activity of compounds on BTK kinase, BTK T474I kinase and BTK C481 S kinase and the selectivity of compounds relative to EGFR, ITK and TEC kinases.
# (§2) Reagents and consumables: BTK kinase (Invitrogen, Catalog No. PV3587), BTK C481S (Carna, Product No. 08-547), BTK T474I(SignalChem Product No. B10-12HH), ITK (Cama, Product No. 08-181), EGFR (Cama, Product No. 08-115), TEC (Carna, Product No. 08-182), HTRF-TK kit (Cisbio, Product No. 62TK0PEC), MgCl2 (Sigma, Product No. M1028), MnCl2 (Sigma, Product No. M1787), DTT (Sigma, Product No. D0632), ATP (Sigma, Product No. A7699-1g), DMSO (Sigma, Product No. D2650), 384-well plate (PE, Product No. 6008280).
# (§3) The entire operation steps were carried out on ice, and the total reaction volume was 10µL. A compound (4µL), substrate and ATP (4µL), and kinase (2µL) were added in sequence to a 384-well plate, and the plate was shaken for 30 seconds. The mixture was reacted at room temperature for an appropriate time, and then the detection reagent was added. The resulting mixture was reacted at room temperature for 1 hour, and then the plate was assayed with a microplate reader. The specific steps were as follows: • a) a 1 × kinase buffer solution required for the kinase assay was calculated according to the amount of the test compound, and prepared as needed; • b) 2.5 × working concentration of a compound was prepared, 100-fold gradient concentration solutions of a compound were diluted by 40 × to the desired concentration, respectively, mixed well, and added to each well at 4 µL per well; • c) 5 × working concentration of the substrate and ATP were prepared, mixed in a ratio of 1:1 before being added to the 384-well plate, and added to each well at 4 µL per well; • d) 5 × working concentration of a kinase was prepared, 2 µL of which was added to each well; • e) the plate was shaken on a microplate shaker for 30 seconds, sealed with a sealing membrane, and the mixture was reacted at room temperature for an appropriate time; • f) 4 × working concentration of streptavidin XL-665 and TK antibody-cryptate compound were prepared, mixed in a ratio of 1:1 before being added to the 384-well plate, and added to each well at 10 µL per well; • g) the mixture was reacted at room temperature for 1 hour, and then the plate was read; • h) the wells with only substrate, ATP and 1% DMSO added but no kinase were blank control wells, and the wells with only substrate, ATP, 1% DMSO and kinase were positive control wells.
# (§4) Readings: The values of 620 nm (cryptate) and 665 nm (XL665) were read with a BioTek Synerg Neo2 microplate reader, the ratio of 665/620 for each well was calculated, and the data were exported.
# (§5) Data analysis: IC50 was calculated using GraphPad Prism 7.0 software.
# (§6) The IC50 (half-maximal inhibitory concentration) of the compound was obtained using the following nonlinear fitting formula: Y = Bottom + (Top−Bottom)/(1+10^(∧)((LogIC50−X)*HillSlope)) [formula] • X: Log value of the compound concentration • Y: Inhibition rate (% inhibition) • Top: Maximum response • Bottom: Baseline response • HillSlope: Slope of the curve
# (§7) The formula for calculating kinase inhibition rate (inhibition rate %) was: [formula]
# BTK T474I = target: T2, BTK T474I (Homo sapiens, UniProt Q06187, T474I); assay: Kinase activity inhibition assay (HTRF TK Kit)
# T2 construct: purchased SignalChem B10-12HH
# From the text: as §1, §2, §3, §4, §5, §6, §7
# BTK kinase = target: T3, BTK kinase (Homo sapiens, UniProt Q06187); assay: Kinase activity inhibition assay (HTRF TK Kit)
# T3 construct: purchased Invitrogen PV3587
# From the text: as §1, §2, §3, §4, §5, §6, §7
# TEC = target: T4, TEC (Homo sapiens, UniProt P42680); assay: Kinase activity inhibition assay (HTRF TK Kit), selectivity
# T4 construct: purchased Carna 08-182
# T4 sequence (P42680 1-631): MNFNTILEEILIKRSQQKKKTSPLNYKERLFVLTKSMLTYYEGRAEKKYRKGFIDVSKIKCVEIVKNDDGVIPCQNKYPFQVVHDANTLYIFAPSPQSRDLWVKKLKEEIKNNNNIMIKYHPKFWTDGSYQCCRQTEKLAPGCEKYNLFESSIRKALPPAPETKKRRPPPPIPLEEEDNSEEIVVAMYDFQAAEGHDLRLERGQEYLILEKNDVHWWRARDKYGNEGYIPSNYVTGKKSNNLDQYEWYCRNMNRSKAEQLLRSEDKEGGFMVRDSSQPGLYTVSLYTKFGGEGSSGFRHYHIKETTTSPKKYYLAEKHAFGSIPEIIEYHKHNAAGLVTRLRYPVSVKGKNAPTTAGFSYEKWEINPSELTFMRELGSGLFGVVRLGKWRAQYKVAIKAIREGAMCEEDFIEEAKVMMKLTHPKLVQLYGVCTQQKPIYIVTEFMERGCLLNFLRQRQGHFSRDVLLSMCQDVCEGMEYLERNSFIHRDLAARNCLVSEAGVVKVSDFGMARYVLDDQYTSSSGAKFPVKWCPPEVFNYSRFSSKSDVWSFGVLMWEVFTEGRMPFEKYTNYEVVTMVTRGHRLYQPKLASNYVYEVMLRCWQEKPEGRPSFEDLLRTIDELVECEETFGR
# From the text: as §1, §2, §3, §4, §5, §6, §7
# ITK = target: T5, ITK (Homo sapiens, UniProt Q08881); assay: as above
# T5 construct: purchased Carna 08-181
# T5 sequence (Q08881 1-620): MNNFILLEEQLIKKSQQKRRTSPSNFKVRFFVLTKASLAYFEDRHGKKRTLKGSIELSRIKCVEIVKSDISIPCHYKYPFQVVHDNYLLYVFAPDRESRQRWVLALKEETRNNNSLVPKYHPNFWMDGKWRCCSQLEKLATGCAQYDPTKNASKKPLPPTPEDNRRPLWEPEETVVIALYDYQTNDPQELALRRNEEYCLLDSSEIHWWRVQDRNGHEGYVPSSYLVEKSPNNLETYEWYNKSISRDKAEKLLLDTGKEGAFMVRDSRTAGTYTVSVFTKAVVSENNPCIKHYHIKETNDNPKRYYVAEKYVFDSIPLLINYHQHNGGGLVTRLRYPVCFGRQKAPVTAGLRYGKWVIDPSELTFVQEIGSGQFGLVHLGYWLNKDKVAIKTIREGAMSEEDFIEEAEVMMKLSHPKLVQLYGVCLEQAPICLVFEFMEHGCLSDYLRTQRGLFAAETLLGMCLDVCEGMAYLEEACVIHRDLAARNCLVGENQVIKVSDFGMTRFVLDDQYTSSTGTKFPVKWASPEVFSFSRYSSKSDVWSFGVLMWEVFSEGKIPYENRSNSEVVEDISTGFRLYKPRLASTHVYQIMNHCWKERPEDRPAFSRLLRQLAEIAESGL
# From the text: as §1, §2, §3, §4, §5, §6, §7
# EGFR = target: T6, EGFR (Homo sapiens, UniProt P00533); assay: as above
# T6 construct: purchased Carna 08-115
# From the text: as §1, §2, §3, §4, §5, §6, §7
# T2 sequence (Q06187 whole entry T474I): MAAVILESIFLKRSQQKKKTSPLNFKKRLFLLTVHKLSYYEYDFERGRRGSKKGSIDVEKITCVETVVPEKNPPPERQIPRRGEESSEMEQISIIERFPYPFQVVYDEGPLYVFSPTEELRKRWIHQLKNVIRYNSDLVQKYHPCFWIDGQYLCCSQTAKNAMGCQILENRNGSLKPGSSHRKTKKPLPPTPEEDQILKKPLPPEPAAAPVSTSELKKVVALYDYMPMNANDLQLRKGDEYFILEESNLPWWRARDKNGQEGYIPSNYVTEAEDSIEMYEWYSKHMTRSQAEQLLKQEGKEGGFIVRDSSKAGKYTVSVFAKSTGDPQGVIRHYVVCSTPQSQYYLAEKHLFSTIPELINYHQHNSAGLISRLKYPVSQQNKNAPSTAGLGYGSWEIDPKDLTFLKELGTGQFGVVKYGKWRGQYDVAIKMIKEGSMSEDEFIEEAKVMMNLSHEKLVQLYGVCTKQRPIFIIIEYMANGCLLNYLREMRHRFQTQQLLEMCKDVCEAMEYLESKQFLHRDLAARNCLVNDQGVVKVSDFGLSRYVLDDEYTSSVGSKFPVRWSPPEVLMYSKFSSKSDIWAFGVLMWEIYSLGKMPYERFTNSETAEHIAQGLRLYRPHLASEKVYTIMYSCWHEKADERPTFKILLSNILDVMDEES
# T1 sequence (Q06187 whole entry C481S): as the sequence (Q06187 whole entry T474I) above, with I474T, C481S counted along it
# T6 sequence (P00533 669-1210 limits assumed): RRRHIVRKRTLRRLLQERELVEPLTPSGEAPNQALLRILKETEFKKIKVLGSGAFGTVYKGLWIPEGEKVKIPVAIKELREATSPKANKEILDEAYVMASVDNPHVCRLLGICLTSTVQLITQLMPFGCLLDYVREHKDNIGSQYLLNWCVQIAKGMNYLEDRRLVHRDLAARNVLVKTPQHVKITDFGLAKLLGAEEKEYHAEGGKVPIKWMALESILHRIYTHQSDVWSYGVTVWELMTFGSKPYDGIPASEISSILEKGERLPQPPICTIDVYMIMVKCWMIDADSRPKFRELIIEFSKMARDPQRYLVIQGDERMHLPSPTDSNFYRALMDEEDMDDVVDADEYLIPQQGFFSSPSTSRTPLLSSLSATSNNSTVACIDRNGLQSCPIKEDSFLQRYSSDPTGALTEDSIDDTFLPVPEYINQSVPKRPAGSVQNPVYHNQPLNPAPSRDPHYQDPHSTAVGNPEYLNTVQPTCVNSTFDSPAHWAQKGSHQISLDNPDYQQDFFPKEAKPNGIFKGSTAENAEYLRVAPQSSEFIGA
# T3 sequence (Q06187 whole entry): as the sequence (Q06187 whole entry T474I) above, with I474T counted along it
IC50 (BTK C481S) [nM],IC50 (BTK T474I) [nM],IC50 (BTK kinase) [nM],IC50 (TEC) [nM],IC50 (ITK) [nM],IC50 (EGFR) [nM],SMILES
1 to 5,50 to 500,1 to 5,50 to 500,> 500,50 to 500,"COc1ccc(F)cc1C(=O)NCc1ccc(-c2nc(C(C)C(F)(F)F)cc3[nH]nc(N)c23)cc1 (single isomer, unassigned) [Example 2, N-(4-(3-amino-6-(1,1,1-trifluoropropan-2-yl)-1H-pyrazolo[4,3-c]pyridin-4-yl)benzyl)-5-fluoro-2-methoxybenzamide]"
1 to 5,50 to 500,1 to 5,50 to 500,> 500,> 500,"COc1ccc(F)cc1C(=O)NCc1ccc(-c2nc(C(C)C(F)(F)F)cc3[nH]nc(N)c23)cc1 (single isomer, unassigned) [Example 3, N-(4-(3-amino-6-(1,1,1-trifluoropropan-2-yl)-1H-pyrazolo[4,3-c]pyridin-4-yl)benzyl)-5-fluoro-2-methoxybenzamide]"
1 to 5,5 to 50,1 to 5,50 to 500,> 500,> 500,"COc1ccc(F)cc1C(=O)NCc1ccc(-c2nc(C(C)C(F)(F)F)c(-c3ccn(C)n3)c3[nH]nc(N)c23)cc1 (single isomer, unassigned) [Example 6-1, N-(4-(3-amino-7-(1-methyl-1H-pyrazol-3-yl)-6-(1,1,1-trifluoropropan-2-yl)-1H-pyrazolo[4,3-c]pyridin-4-yl)benzyl)-5-fluoro-2-methoxybenzamide]"
1 to 5,5 to 50,1 to 5,5 to 50,> 500,50 to 500,"COc1ccc(F)cc1C(=O)NCc1ccc(-c2nc(C(C)C(F)(F)F)c(-c3ccn(C)n3)c3[nH]nc(N)c23)cc1 (single isomer, unassigned) [Example 6-2, N-(4-(3-amino-7-(1-methyl-1H-pyrazol-3-yl)-6-(1,1,1-trifluoropropan-2-yl)-1H-pyrazolo[4,3-c]pyridin-4-yl)benzyl)-5-fluoro-2-methoxybenzamide]"
1 to 5,50 to 500,1 to 5,5 to 50,> 500,> 500,"COc1ccc(F)cc1C(=O)NCc1ccc(-c2nc(C(C)C(F)(F)F)c(-c3ncccn3)c3[nH]nc(N)c23)cc1 (single isomer, unassigned) [Example 7-1, N-(4-(3-amino-7-(pyrimidin-2-yl)-6-(1,1,1-trifluoropropan-2-yl)-1H-pyrazolo[4,3-c]pyridin-4-yl)benzyl)-5-fluoro-2-methoxybenzamide]"
1 to 5,50 to 500,1 to 5,50 to 500,> 500,> 500,"COc1ccc(F)cc1C(=O)NCc1ccc(-c2nc(C(C)C(F)(F)F)c(-c3ncccn3)c3[nH]nc(N)c23)cc1 (single isomer, unassigned) [Example 7-2, N-(4-(3-amino-7-(pyrimidin-2-yl)-6-(1,1,1-trifluoropropan-2-yl)-1H-pyrazolo[4,3-c]pyridin-4-yl)benzyl)-5-fluoro-2-methoxybenzamide]"
5 to 50,> 500,5 to 50,> 500,> 500,50 to 500,"COc1ccc(F)cc1C(=O)NCc1ccc(-c2nc(C(C)C(F)(F)F)cc3[nH]nc(N)c23)cc1 (stereo not drawn) [Example 1, N-(4-(3-amino-6-(1,1,1-trifluoropropan-2-yl)-1H-pyrazolo[4,3-c]pyridin-4-yl)benzyl)-5-fluoro-2-methoxybenzamide]"
1 to 5,5 to 50,1 to 5,5 to 50,> 500,50 to 500,"COc1ccc(F)cc1C(=O)NCc1ccc(-c2nc(C(C)C(F)(F)F)c(-c3ccn(C)n3)c3[nH]nc(N)c23)cc1 (stereo not drawn) [Example 6, N-(4-(3-amino-7-(1-methyl-1H-pyrazol-3-yl)-6-(1,1,1-trifluoropropan-2-yl)-1H-pyrazolo[4,3-c]pyridin-4-yl)benzyl)-5-fluoro-2-methoxybenzamide]"
1 to 5,50 to 500,1 to 5,5 to 50,> 500,50 to 500,"COc1ccc(F)cc1C(=O)NCc1ccc(-c2nc(C(C)C(F)(F)F)c(-c3ncccn3)c3[nH]nc(N)c23)cc1 (stereo not drawn) [Example 7, N-(4-(3-amino-7-(pyrimidin-2-yl)-6-(1,1,1-trifluoropropan-2-yl)-1H-pyrazolo[4,3-c]pyridin-4-yl)benzyl)-5-fluoro-2-methoxybenzamide]"
5 to 50,50 to 500,1 to 5,50 to 500,> 500,50 to 500,"COc1ccc(F)cc1C(=O)NCc1ccc(-c2nc(C(C)C(F)(F)F)c(-c3cc(C)[nH]n3)c3[nH]nc(N)c23)cc1 (stereo not drawn) [Example 9, N-(4-(3-amino-7-(5-methyl-1H-pyrazol-3-yl)-6-(1,1,1-trifluoropropan-2-yl)-1H-pyrazolo[4,3-c]pyridin-4-yl)benzyl)-5-fluoro-2-methoxybenzamide]"
≤ 1,50 to 500,≤ 1,5 to 50,> 500,50 to 500,"COc1ccc(F)cc1C(=O)NCc1ccc(-c2ncc(-c3ccccn3)c3[nH]nc(N)c23)cc1 [Example 15, N-(4-(3-amino-7-(pyridin-2-yl)-1H-pyrazolo[4,3-c]pyridin-4-yl)benzyl)-5-fluoro-2-methoxybenzamide]"
